Experimental data: patent publication US20230270711A1, “Improved Anti-Hangover Composition, Its Preparation and Uses” (Zobrius Pharma AS, priority 2019, published 2023)

Key:
[1] = biological target: LADH; conditions: read-out: Ki, inhibition of LADH; cited from earlier work
[2] = tested on: alcohol metabolism; assay: Clinical Study Protocol: alcohol metabolism from BAC (CA 2000 Digital Alcohol Detector), Examples 1 and 2; format: in vivo, human; conditions: in the 500 ml Composition A (90 g fructose)
Protocol: Clinical Study Protocol—The studies presented in Examples 1 and 2 were carried out with 10 individuals (6 males and 4 females, aged 24-57 years).
In the control study (using water alone as the after-alcohol drink), the test persons were given 8 oz. (ca.2.4 dl) of vodka mixed with 6 dl Sprite® (The Coca Cola Company). The alcohol was consumed within one hour. At a given time, 30-60 minutes after alcohol consumption, each person drank a given volume of water (control composition). The alcohol level was then measured as described below.
One week later, a second study was carried out, wherein the same test persons were given the same amounts of vodka and Sprite®, respectively. At the given time after alcohol consumption, each test person drank the given volume of a test composition. The alcohol level was then measured as described just below.
Blood alcohol concentration (BAC) was measured, using a CA 2000 Digital Alcohol Detector, once every 30 minutes in each experiment. Each value is an average of four parallel measurements. Evaluation of effect against hangover was graded on a scale from 1-10 (where 10 represents the greatest effect).
The study protocol was carried out as described above, wherein the test composition comprised Comparative Composition A (defined below); the given time was 45 minutes; and the given volume was 500 ml. […]

Compound	Ki [1]	Contribution of fructose to the acceleration of alcohol degradation [2]
NC(=O)C1=CN([C@@H]2O[C@H](COP(=O)(O)OP(=O)(O)OC[C@H]3O[C@@H](n4cnc5c(N)ncnc54)[C@H](O)[C@@H]3O)[C@@H](O)[C@H]2O)C=CC1 [NADH]	56 µM	–
O=C(CO)[C@@H](O)[C@H](O)[C@H](O)CO [fructose]	–	20-25%
